Assay results as given in article PMC11249239 (PLOS ONE, 2024).

Test system: MCF10A normal breast epithelial cells
Test: Cell growth inhibition (CCK8 cytotoxicity assay), MCF10A
Format: cell-based
Settings: Homo sapiens, MCF-10A, 48 h treatment, read-out: Average EC50 ± SD, cell growth inhibition

`O=C(CCCCCCC(=O)Nc1ccccc1)NO` [SAHA, reference compound] was tested, and the EC50 was 10.1 ± 0.982 µM.
